Experimental data: patent US20250018030A1, “PHARMACEUTICAL COMPOSITION FOR PROMOTING CANCER IMMUNOTHERAPY AND METHOD FOR PROMOTING CANCER IMMUNOTHERAPY” (China Medical University, priority 2023, published 2025)

How the values were obtained:
Tc1 cells = experiment: Intracellular cytokine staining / flow cytometry of genipin-treated skewed Tc1 cells; format: cell-based, Mouse
Experimental: (§1) Mouse lymph nodes and spleens were harvested, and naïve CD4 or CD8 T cells isolated via magnetic bead separation (STEMCELL Technologies) and activated in α-CD3 (10 μg/ml) and α-CD28 (1 μg/ml) pre-coated 96-well plates. Skewing conditions were as follows: Th1 cells/Tc1 cells ([…] 10 μ/ml α-IL-4), Th2 cells/Tc2 cells (20 ng/ml IL-4 and 10 μ/ml α-IFN-γ), Th17 cells/Tc17 cells (20 ng/ml IL-6, 1.25 ng/ml […], 20 ng/ml IL-1β, 20 ng/ml IL-23, 10 μg/ml α-IFN-γ and 10 μg/ml α-IL-4), and Treg cells (5 ng/ml TGF-β, 10 μg/ml α-IFN-γ and 10 μg/ml α-IL-4) in the indicated medium. Cells were cultured for 4-5 days followed by treatment with genipin (3.125 μM, 6.25 μM, 12.5 μM) or DMSO for 12-16 hours.
(§2) Monoclonal antibodies were purchased from BD Biosciences or eBioscience. For intracellular cytokine staining (ICS), cells were first restimulated by PMA/ionomycin for 5 hours in the presence of GolgiStop (BD Biosciences), followed by surface epitope staining markers before being fixed/permeabilized (BD Cytofix/Cytoperm™) and stained with antibodies targeting intracellular antigens. Cells were finally fixed with 1.5% formaldehyde for 10 minutes at room temperature and analyzed on a FACSVerse flow cytometer (BD Bioscience). Data were analyzed using FlowJo software (Tree Star Inc.).

Tc17 cells = experiment: Intracellular cytokine staining / flow cytometry of genipin-treated skewed Tc17 cells; format: cell-based, Mouse; details: FIG. 1E-1G
Experimental: as §1, §2

Th1 cells = experiment: Cytokine staining of genipin-treated skewed Th1 cells; format: cell-based, Mouse; details: data not shown
Experimental: as §1, §2

Th17 cells = experiment: Cytokine staining of genipin-treated skewed Th17 cells; format: cell-based, Mouse; details: data not shown
Experimental: as §1, §2

[1] = test system: Th2 cells and regulatory T cells (Treg); experiment: Populations of Th2 cells and Treg cells after genipin; format: cell-based, Mouse; details: genipin-treated; data not shown
Experimental: as §1, §2

tumors of PDAC patients = experiment: Ex vivo genipin treatment of tumors of PDAC patients, flow cytometry; format: cell-based, human
Experimental: as §2
PDAC human subject study was approved by the Research Ethics Committee of China Medical University & Hospital (CMUH109-REC2-148). 10 ml of fresh blood and 0.1-0.5 mm^3 of tumor mass were collected on the same day from patients who underwent surgical resection. Monocytes were isolated from the patients' peripheral blood mononuclear cell (PBMC) or tumor mass. Cells were resuspended in RPMI medium containing 10% FBS and seeded at a density of 2×10^5/well in a 12-well plate. Cells were treated with genipin (12.5 μM, 25 μM) and incubated overnight before staining for the flow cytometry analysis.

COC(=O)C1=CO[C@@H](O)[C@@H]2C(CO)=CC[C@H]12 [genipin]
IL-12R expression in Tc1 cells (Tc1 cells; genipin 12.5 μM, FIG. 2O-2P): increased IL-12R expression | IFN-γ production in Tc1 cells (Tc1 cells; genipin 3.125, 6.25, 12.5 μM, 12-16 hours, FIG. 1C-1D): promoted IFN-γ | T-bet expression in IFN-γ+CD8+ T cell population of Tc1 cells (Tc1 cells; genipin-treated Tc1 cells, FIG. 1J): elevated the expression of T-bet | IFN-γ production in Tc17 cells (Tc17 cells): promoted IFN-γ | IL-17 expression in Tc17 cells (Tc17 cells): without impacting IL-17 expression | IFN-γ in Th1 cells (Th1 cells): increased IFN-γ | IFN-γ in Th17 cells (Th17 cells): increased IFN-γ | IL-17 expression in Th17 cells (Th17 cells): without an impact on IL-17 expression | Population of Th2 cells [1]: nor significantly altering the populations | Population of regulatory T cells (Treg) [1]: nor significantly altering the populations | Tc1 cells (IFN-γ-producing CD8+ T cells) (tumors of PDAC patients; genipin 12.5, 25 μM overnight, FIG. 8C-8D): increased Tc1 cells | Th1 cells population (IFN-γ-producing CD4+ T cells) (tumors of PDAC patients; genipin overnight, FIG. 8G): no significant changes | Th17 cells (IL-17-producing CD4+ T cells) (tumors of PDAC patients; genipin overnight, FIG. 8H): did not increase
